From ChEMBL document CHEMBL4190314, “Quinoline hybrids and their antiplasmodial and antimalarial activities” (Eur J Med Chem, 2017)

What was measured:
Assay type in all cases: functional, organism-based
Plasmodium falciparum [1] = assay: Antimalarial activity against chloroquine-sensitive Plasmodium falciparum D6 infected in human type A+ erythrocytes after 48 hrs by [3H]-hypoxanthine incorporation assay
Plasmodium falciparum [2] = assay: Antimalarial activity against chloroquine-resistant Plasmodium falciparum FcM29 infected in human type A+ erythrocytes after 48 hrs by [3H]-hypoxanthine incorporation assay
Plasmodium falciparum [3] = assay: Antimalarial activity against chloroquine-resistant Plasmodium falciparum Palo Alto/Ouganda infected in human type A+ erythrocytes after 48 hrs by [3H]-hypoxanthine incorporation assay
Plasmodium falciparum [4] = assay: Antimalarial activity against chloroquine-sensitive Plasmodium falciparum F32 infected in human type A+ erythrocytes after 48 hrs by [3H]-hypoxanthine incorporation assay
Plasmodium falciparum [5] = assay: Antimalarial activity against chloroquine-resistant Plasmodium falciparum FcB1/Columbia infected in human type A+ erythrocytes after 48 hrs by [3H]-hypoxanthine incorporation assay
Plasmodium falciparum [6] = assay: Antimalarial activity against chloroquine-resistant Plasmodium falciparum FCR-3/Gambia infected in human type A+ erythrocytes after 48 hrs by [3H]-hypoxanthine incorporation assay
Plasmodium falciparum [7] = assay: Antimalarial activity against synchronous culture of Plasmodium falciparum W2 ring stage infected in human erythrocytes after 48 hrs by flow cytometry; details: W2, 48 h
Plasmodium falciparum [8] = assay: Antimalarial activity against Plasmodium falciparum 3D7 infected in human erythrocytes after 72 hrs by SYBR Green-1 staining based fluorescence assay; details: 3D7, 72 h
Plasmodium falciparum [9] = assay: Antimalarial activity against chloroquine-sensitive Plasmodium falciparum 3D7 infected in human erythrocytes after 72 hrs by SYBR Green-1 staining based fluorescence assay; details: 3D7, 72 h
Plasmodium falciparum [10] = assay: Antimalarial activity against chloroquine-sensitive Plasmodium falciparum 3D7 infected in human type A+ erythrocytes after 48 hrs by [3H]-hypoxanthine incorporation assay
Plasmodium falciparum [11] = assay: Antimalarial activity against chloroquine-resistant Plasmodium falciparum K1 infected in human type A+ erythrocytes after 48 hrs by [3H]-hypoxanthine incorporation assay
Plasmodium falciparum [12] = assay: Antimalarial activity against chloroquine-sensitive Plasmodium falciparum D6 infected in human red blood cells assessed as reduction in parasitic LDH activity by Malstat reagent based spectrophotometric method
Plasmodium falciparum [13] = assay: Antimalarial activity against chloroquine-resistant Plasmodium falciparum W2 infected in human red blood cells assessed as reduction in parasitic LDH activity by Malstat reagent based spectrophotometric method
Plasmodium falciparum [14] = assay: Antimalarial activity against chloroquine-sensitive Plasmodium falciparum 3D7 infected in human type A+ erythrocytes after 24 hrs by [3H]-hypoxanthine incorporation assay
Plasmodium falciparum [15] = assay: Antimalarial activity against chloroquine-resistant Plasmodium falciparum W2 infected in human type A+ erythrocytes after 24 hrs by [3H]-hypoxanthine incorporation assay

## CC1(C)COC2(CCC(N[C@H]3CC[C@H](Nc4ccnc5cc(Cl)ccc45)CC3)CC2)OO1 (some centres not stated)
Plasmodium falciparum [1]
  IC50: 0.007 to 0.024 µM
Plasmodium falciparum [2]
  IC50: 0.007 to 0.024 µM
Plasmodium falciparum [3]
  IC50: 0.007 to 0.024 µM
Plasmodium falciparum [4]
  IC50: 0.007 to 0.024 µM
Plasmodium falciparum [5]
  IC50: 0.007 to 0.024 µM
Plasmodium falciparum [6]
  IC50: 0.007 to 0.024 µM

## O=C(/C=C/c1ccccc1)NCCCCNc1ccnc2cc(Cl)ccc12
Plasmodium falciparum [7]
  IC50: 0.011 to 0.059 µM

## Cc1ccc(/C=C/C(=O)NCCCCNc2ccnc3cc(Cl)ccc23)cc1
Plasmodium falciparum [7]
  IC50: 0.011 to 0.059 µM

## CC(C)c1ccc(/C=C/C(=O)NCCCCNc2ccnc3cc(Cl)ccc23)cc1
Plasmodium falciparum [7]
  IC50: 0.011 to 0.059 µM

## COc1ccc(/C=C/C(=O)NCCCCNc2ccnc3cc(Cl)ccc23)cc1
Plasmodium falciparum [7]
  IC50: 0.011 to 0.059 µM

## Nc1ccc(/C=C/C(=O)NCCCCNc2ccnc3cc(Cl)ccc23)cc1
Plasmodium falciparum [7]
  IC50: 0.011 to 0.059 µM

## O=C(/C=C/c1cccc(F)c1)NCCCCNc1ccnc2cc(Cl)ccc12
Plasmodium falciparum [7]
  IC50: 0.011 to 0.059 µM

## O=C(/C=C/c1ccc(F)cc1)NCCCCNc1ccnc2cc(Cl)ccc12
Plasmodium falciparum [7]
  IC50: 0.011 to 0.059 µM

## O=C(/C=C/c1ccc(Cl)cc1)NCCCCNc1ccnc2cc(Cl)ccc12
Plasmodium falciparum [7]
  IC50: 0.011 to 0.059 µM

## O=C(/C=C/c1ccc(Br)cc1)NCCCCNc1ccnc2cc(Cl)ccc12
Plasmodium falciparum [7]
  IC50: 0.011 to 0.059 µM

## O=C(/C=C/c1ccccc1[N+](=O)[O-])NCCCCNc1ccnc2cc(Cl)ccc12
Plasmodium falciparum [7]
  IC50: 0.011 to 0.059 µM

## O=C(/C=C/c1cccc([N+](=O)[O-])c1)NCCCCNc1ccnc2cc(Cl)ccc12
Plasmodium falciparum [7]
  IC50: 0.011 to 0.059 µM

## O=C(/C=C/c1ccc([N+](=O)[O-])cc1)NCCCCNc1ccnc2cc(Cl)ccc12
Plasmodium falciparum [7]
  IC50: 0.011 to 0.059 µM

## CN(C)c1ccc(/C=C/C(=O)NCCCCNc2ccnc3cc(Cl)ccc23)cc1
Plasmodium falciparum [7]
  IC50: 0.011 to 0.059 µM

## COc1ccc(/C=C/C(=O)NCCCCNc2ccnc3cc(Cl)ccc23)cc1OC
Plasmodium falciparum [7]
  IC50: 0.011 to 0.059 µM

## C=C[C@H]1CN2CC[C@H]1C[C@H]2[C@H](OC(=O)[C@H](CCCCNC(=O)OCc1ccccc1)NC(=O)OCc1ccccc1)c1ccnc2ccc(OC)cc12
Plasmodium falciparum [8]
  IC50: < 0.1 µM

## C=C[C@H]1CN2CC[C@H]1C[C@H]2[C@H](OC(=O)CNC(=O)c1cn(C2CC2)c2cc(N3CCN(CC)CC3)c(F)cc2c1=O)c1ccnc2ccc(OC)cc12
Plasmodium falciparum [9]
  IC50: 0.012 to 0.207 µM

## C=C[C@H]1CN2CC[C@H]1C[C@H]2[C@H](OC(=O)[C@H](Cc1cn(S(=O)(=O)c2ccc(C)cc2)cn1)NC(=O)OC(C)(C)C)c1ccnc2ccc(OC)cc12
Plasmodium falciparum [8]
  IC50: < 0.1 µM

## O=C1OC(CN2CCN(c3ccccc3F)CC2)CN1CCCNc1ccnc2cc(Cl)ccc12 (configuration not stated)
Plasmodium falciparum [10]
  IC50: 0.062 to 0.43 µM
Plasmodium falciparum [11]
  IC50: 0.062 to 0.43 µM

## O=C1OC(CN2CCN(c3ccc(F)cc3)CC2)CN1CCNc1ccnc2cc(Cl)ccc12 (configuration not stated)
Plasmodium falciparum [10]
  IC50: 0.062 to 0.43 µM
Plasmodium falciparum [11]
  IC50: 0.062 to 0.43 µM

## Cc1cccc(C)c1Nc1nc(OCc2cn(CCNc3ccnc4cc(Cl)ccc34)nn2)nc(N(C)C)n1
Plasmodium falciparum [12]
  IC50: 0.58 µM
Plasmodium falciparum [13]
  IC50: 0.73 µM

## C=C[C@H]1CN2CC[C@H]1C[C@H]2[C@H](OC(=O)[C@H](Cc1ccccc1)NC(=O)c1cn2c3c(c(N4CCN(C)CC4)c(F)cc3c1=O)OC[C@@H]2C)c1ccnc2ccc(OC)cc12
Plasmodium falciparum [9]
  IC50: 0.012 to 0.207 µM

## O[C@@]12OOC3(C=C1C[C@@H]1C=C[C@H]2C1)CCN(c1ccnc2cc(Cl)ccc12)CC3
Plasmodium falciparum [14]
  IC50: 6.05 to 6.75 µM
Plasmodium falciparum [15]
  IC50: 6.05 to 6.75 µM

## C=C[C@H]1CN2CC[C@H]1C[C@H]2[C@H](OC(=O)[C@H](C)NC(=O)c1cn(CC)c2nc(C)ccc2c1=O)c1ccnc2ccc(OC)cc12
Plasmodium falciparum [9]
  IC50: 0.012 to 0.207 µM

## C=C[C@H]1CN2CC[C@H]1C[C@H]2[C@H](OC(=O)[C@H](C)NC(=O)OC(C)(C)C)c1ccnc2ccc(OC)cc12
Plasmodium falciparum [8]
  IC50: < 0.1 µM

## C=C[C@H]1CN2CC[C@H]1C[C@H]2[C@H](OC(=O)CNC(=O)[C@@H](NC(=O)OCc1ccccc1)[C@@H](C)CC)c1ccnc2ccc(OC)cc12
Plasmodium falciparum [8]
  IC50: < 0.1 µM

## O=C1OC(CN2CCN(c3ccccc3F)CC2)CN1CCCCCCNc1ccnc2cc(Cl)ccc12 (configuration not stated)
Plasmodium falciparum [10]
  IC50: 0.062 to 0.43 µM
Plasmodium falciparum [11]
  IC50: 0.062 to 0.43 µM
